# Source: patent US20240108610A1, “RECTAL ADMINISTRATION OF ROFLUMILAST FOR THE TREATMENT OF CROHN'S DISEASE” (King Abdulaziz University, priority 2022, published 2024)
# Assays:
# [1] = system: dextran sulphate sodium (DSS)-induced colitis; settings: oral, 1 or 5 mg·kg−1·day−1, mice; cited from earlier work
# [2] = system: DSS-induced ulcerative colitis; settings: 5 mg/kg, male Wistar rats, cited from earlier work
# [3] = system: TNBS-induced reduction in colon length; settings: 1 and 5 mg-kg−1·day−1; another study (13); cited from earlier work
# [4] = system: ovalbumin-induced asthmatic mice; settings: inhaled; cited from earlier work
# [5] = oral; cited from earlier work
# [6] = oral; cited from earlier work; remark: listed apart in the source
# GSH = assay: Colonic GSH in colonic tissue homogenates, TNBS-induced colitis; type: in vivo, rat; settings: oral, once daily for 15 days; SS 500 mg/kg, OR 5 mg/kg; means±SE, n = 8
# Experimental: Chronic colitis was induced by weekly rectal injections of increasing doses of TNBS over 6 weeks (15, 30, 45, 60, 60, and 60 mg from day 0 to day 35), as previously described (4,12). Briefly, after food deprivation for 24 h, rats were anesthetized with an intraperitoneal injection of 1% isoflurane. TNBS was dissolved in ethanol (50%) and instilled into the colon using a cannula (0.25 mL), and then the rats were held upside down for 3 min to prevent escape of the intracolonic TNBS. Roflumilast was dissolved in dimethyl sulfoxide and diluted in 0.5% carboxymethyl cellulose sodium to a final concentration of 5.0 mg·kg^−1·day^−1 as previously described (13). Five groups of rats (n=8) were established: normal control (NC group), TNBS-treated (TNBS group, positive control), and three TNBS-treated groups that received oral sulfasalazine (SS group, 500 mg/kg) (14), oral roflumilast (by gastric gavage, OR group, 5 mg/kg), or rectal roflumilast (RR group, 5 mg/kg). […] At the end of the treatment period, the rats were evaluated with the colitis activity score. […] At the end of the 15-day treatment period, the rats were sacrificed by cervical dislocation, and the colon was isolated, cleaned of feces, and measured for weight and length. Colonic myeloperoxidase (MPO) activity and glutathione (GSH) and malonaldehyde (MDA) levels were measured. […]
Structure (SMILES),Colonic length [1],colonic TNF-α production [1],"disease clinical score (weight loss, stool consistency, and hemorrhage) [1]",histological score [1],colon length ([2]; compared with the DSS group),histological scores ([2]; compared with the DSS group),severity of colitis ([2]; compared with the DSS group),weight loss ([2]; compared with the DSS group),"colon concentrations of TNF-α and NO, MPO activity, and inducible nitric oxide synthase gene expression [2]",TNBS-induced reduction in colon length [3],elevated colonic concentration of TNF-α [3],inflammation and histopathological changes [4],"numbers of neutrophils, eosinophils, and macrophages in the bronchoalveolar lavage fluid [4]",bioavailability [5] [%],side effects [6],colonic level of GSH (GSH)
O=C(Nc1c(Cl)cncc1Cl)c1ccc(OC(F)F)c(OCC2CC2)c1 [roflumilast],dose-dependently improved,dose-dependently improved,dose-dependently improved,not improved,preserved,improved,diminished,decreased,decreased,partially reverses,decreases,substantially improved,decreased,~80,"weight loss, headache, nausea, emesis, and diarrhea",–
O=C(O)c1cc(/N=N/c2ccc(S(=O)(=O)Nc3ccccn3)cc2)ccc1O [sulfasalazine],–,–,–,–,–,–,–,–,–,–,–,–,–,–,–,"14.73 ± 0.49^h, i mmol/mg"
